From a melting point compilation (Tetko et al.; mined from patent text by program, amines drawn as free bases though some values may be those of a salt) come the findings set out here.

Each structure is given as a SMILES string. Where only a bound is given, the exact number is not on record here.

The term melting point denotes the temperature, or range, at which the solid turns liquid. As for `CN(c1ccccc1)P(N)(N)=O`, the melting point was 97 to 99 °C.

As for `Cn1cccc1-c1oncc1C(=O)Nc1ccccc1`, the melting point was 100 to 103 °C.

`COc1cc2cc3c(nc2cc1OC)CCc1cc(Cl)ccc1-3` returned a melting point of 197 °C.

As for `CC(Nc1ccc(F)c(F)c1)C(=O)O` (stereo not drawn), the melting point was 163 °C.

Molecule `CC(=O)Nc1nc2c(ncn2CCC(CO)CO)c(=O)[nH]1` came in with a melting point of 143 to 146 °C.

In the case of `O=[N+]([O-])c1ccc(SCCCCl)cc1`, the melting point lay within 50 to 52 °C.

Consider `Cc1nnc(OC[C@H]2CN(c3ccc(C4=CCOCC4)c(F)c3)C(=O)O2)o1`, for which the melting point is 146 to 147 °C.

Take `CN(C)CCNc1cc(Oc2ccc3c(C(=O)Nc4cc(C(C)(C)C)nn4-c4ccc(F)cc4)cccc3c2)ncn1`: the melting point was in the range of 153 to 155 °C.

Consider `CCCCCS(=O)(=O)NC(=O)/C=C/c1cc(OCCOC)nn1Cc1ccc(Cl)cc1Cl`, for which the melting point was in the range of 82 to 85 °C.

For the molecule `Brc1cn2c(Br)cnc2c(NCc2ccco2)n1`, the melting point worked out at 143 °C.

The molecule `CO[C@@H](C(=O)N[C@H]1CC[C@@H](OC(=O)C=Cc2ccccc2)CNC1=O)[C@H](O)[C@@H](O)[C@H](O)/C=C/C(C)(C)C` displayed a melting point of 83 to 85 °C.

Turning to `O=C(O)c1ccc(Cn2cc(C3c4ccccc4C=Cc4ccccc43)c(=S)[nH]c2=O)o1`, the melting point was 178 to 180 °C.

The molecule `CN(C(=O)OC(C)(C)C)[C@H](Cc1ccc(Cl)c(Cl)c1)[C@H](O)CC(=O)N[C@@H]1CCCCNC1=O` showed a melting point of 187 °C.

Molecule `CN(C)S(=O)(=O)n1c(N)nc2ccc(C(N)=O)cc21` displayed a melting point of 206 to 208 °C.

`CNC(=O)/C(=N/OC)c1ccccc1COc1ccc(C(F)(F)F)c(NC)n1` had a melting point of 66 to 67 °C.

`O=C(O)C1CCCN1C(=O)CCc1cccc(-c2nc(=O)c3ccccc3s2)n1` (stereo not drawn) showed a melting point of 210 to 211 °C.

Turning to `CN1CCN(CCCNc2ncc3cc(-c4c(Cl)cccc4Cl)c(NC(=O)Nc4ccc(Cl)cc4)nc3n2)CC1`, the melting point was in the range of 176 to 181 °C.

As to `COc1ccc(-c2nc(SC(F)(F)CF)[nH]c2-c2ccc(OC)cc2)cc1`, the melting point fell in the range of 144 to 145 °C.

The molecule `O=C(O)COc1c(Br)cc(-c2c3ccccc3c(Br)c3sc4ccccc4c23)cc1Br` came in with a melting point of 259 to 261 °C.

`O=C(Nc1cccc(S(=O)(=O)NC2CC2)c1)c1cnn2c(C(F)F)cc(-c3ccc(Cl)c(Cl)c3)nc12` yielded a melting point of 254 °C.

In turn, `COc1ccc2c(c1)C(NC(=NC#N)SC)CCC2` (stereo not drawn) gave a melting point of 131 to 132 °C.

As to `CCNc1ncc2cc(-c3c(Cl)cccc3Cl)c(=O)n(C)c2n1`, the melting point is 180 to 182 °C.

Turning to `CC(C)(C)OC(=O)N1CCC(c2ccc(N3C[C@@H](CCO)OC3=O)cc2F)CC1`, the melting point fell in the range of 120 to 122 °C.

On to `O=S(=O)(N=CN1CCOCC1)c1cc(Br)cc(Br)c1`, for which the melting point is 195 to 197 °C.

With `CCOC(=O)c1cn(C2CC2)c2c(Cl)c(F)c(F)cc2c1=O`, the melting point was in the range of 154 to 157 °C.

The molecule `CC(C)c1ccc(N(Cc2cnn(C(C)C)c2)C(=O)C2CCCc3c(O)cccc32)cc1` (stereo not drawn) returned a melting point of 185 °C.

Molecule `O=C(O)c1ccccc1C(=O)NCCCSc1ccncc1` had a melting point of 151 to 153 °C.

In the case of `Cc1cc(C)c2c(c1C)OCC2c1ccc(C=O)cc1` (stereo not drawn), the melting point fell in the range of 87 to 88 °C.

`CCOC(=O)/C(C#N)=C(\N)C(CC)CC` returned a melting point of 87 °C.

The molecule `CC(CN1CC=C(c2ccc(Cl)cc2)CC1)C(O)c1ccc(Cl)cc1` (stereo not drawn) yielded a melting point of 110 to 112 °C.

In turn, `CCOC(=O)c1cnc2ccc(C)cc2c1O` registered a melting point of more than 260 °C.

`CN1C=CC2=C(C=CCC2)CC1=O`: the melting point lay in the range of 81 to 82 °C.

The molecule `CC12C=CC(=O)C=C1CCC1C2CCC2(C)C1CCC21CC(=O)CO1` (stereo not drawn) registered a melting point of 147 to 153 °C.

For `Cc1ccc(C(=Cc2nnnn2C)c2ccc(C)cc2F)c(F)c1`, the melting point fell in the range of 58 to 60 °C.

In turn, `N#Cc1ccc2[nH]c3c(ccc4c(C=O)c[nH]c43)c2c1` had a melting point of more than 250 °C.

Regarding `O=[N+]([O-])c1cc(C(F)(F)F)cc2c1nc(C(F)(F)F)n2S(=O)(=O)c1ccccc1`, the melting point lay in the range of 183 to 185 °C.

In turn, `O=C(Nc1c(C(O)(C(F)(F)F)C(F)(F)F)ccc2ccccc12)c1ccco1` showed a melting point of 228 to 229 °C.

In turn, `Cc1[nH]c(C(=O)NCc2ccc(Cl)c(Cl)c2)c(C)c1-c1nc2ccc(C(=O)c3ccccc3)cc2[nH]1` returned a melting point of 141 to 143 °C.

Regarding `CC(=O)N(N(CCCl)S(C)(=O)=O)S(C)(=O)=O`, the melting point is 148 to 149 °C.

`CN(C)CCc1cccc(N2C(=O)N(c3ccc(Cl)cc3Cl)Cc3cnc(Nc4ccccc4)nc32)c1` yielded a melting point of 101 to 105 °C.

The molecule `OCCCc1cnoc1-c1ccc(F)c(Br)c1` yielded a melting point of 57 to 58 °C.

Regarding `CCN1CC(=O)Nc2cc(NC3(C(N)=O)CC4CC3C=C4Cl)c(OC)cc2C1` (stereo not drawn), the melting point fell in the range of 154 to 156 °C.

`CCOc1ccc(-n2c(NCc3ccc(Br)cc3)nc3ccc(Cl)cc32)cc1`: the melting point lay within 140 to 141 °C.

In the case of `CC(C)(C)OC(=O)[C@@H]1CCCN1C(=O)C=CC(F)(F)F`, the melting point lay in the range of 119 to 120 °C.

On to `N#Cc1cccc(N2C(=O)CC(=O)Nc3c2ccc2c3CCC2)c1`, for which the melting point was in the range of 250 to 251 °C.

`c1ccc2c(c1)CNc1ccccc1O2`: the melting point fell in the range of 74 to 76 °C.

In turn, `CC(=O)OCC(=O)C1(O)CCC2C3CCC4=CC(=O)C=CC4(C)C3C(O[Si](C)(C)C)CC21C` (stereo not drawn) displayed a melting point of 180 to 184 °C.

In turn, `CCc1[nH]n(C2CCCC2)c2nc(-c3ccccc3)nc(=O)c1-2` returned a melting point of 221 to 222 °C.

As to `Cc1c(Br)cc(NC(=O)c2cccc(CSc3cnccn3)c2)cc1Br`, the melting point is 119 to 127 °C.

The molecule `CS(=O)(=O)N1CCN(c2ccc(NC(=O)c3ccccc3-c3ccc(C(F)(F)F)cc3)cc2)CC1` had a melting point of 254 to 256 °C.

In turn, `O=C(NCCc1ccccc1)Nc1ccc(CN2C(=O)[C@H]3CCC[C@H]3N(C(=O)CCl)c3ccccc32)cc1` (relative stereo) registered a melting point of 224 to 226 °C.

As to `CNC(=O)c1ccccc1Nc1nc(Nc2ccc3c(c2)CCN(CCF)CC3)ncc1Cl`, the melting point lay within 170 to 174 °C.

`COc1cc(CCC(=O)C2CCCC2=O)cc(OS(=O)(=O)c2ccc(C)cc2)c1OC` (stereo not drawn) had a melting point of 84 °C.

In turn, `CC(=O)NC[C@H]1CN(c2ccc(N3CCC(=C(C#N)CCO)CC3)c(F)c2)C(=O)O1` gave a melting point of 192 to 194 °C.

With `NCC(O)(CCc1ccccc1)CCc1ccccc1`, the melting point fell in the range of 104 to 106 °C.

For `CCOC(=O)C1=C(C)NC(c2cncs2)=NC1c1ccc(F)cc1Cl` (stereo not drawn), the melting point was 121 to 125 °C.

Turning to `Cc1c(NC(=O)c2ccc(-c3ccccc3)cc2F)ccc2cc(CN3CCCC3)cnc12`, the melting point is 166 to 168 °C.

`OC(c1ccccc1)(c1cccs1)C1CCN(CCc2ccccc2)CC1` (stereo not drawn) came in with a melting point of 143 to 144 °C.

As for `COc1cn(-c2ccccc2F)nc(-c2ccnn2-c2ccccc2)c1=O`, the melting point was in the range of 163 to 165 °C.

`CCOP(=O)(/C=C/c1cn(-c2ccccc2)nc1OCc1ccc(OCc2nc(-c3ccc(C(N)=O)cc3)oc2C)c(OC)c1)OCC` yielded a melting point of 146 to 148 °C.

Molecule `Nc1cc(CCC(=O)CCc2ccc(O)c(N)c2)ccc1O` came in with a melting point of 131 to 133 °C.

Consider `CCSSCS(C)(=O)=O`, for which the melting point was 34.6 to 36.3 °C.

In the case of `Cc1cccc2c1O[C@@H](CN1CCC(CNC(=O)c3cccnc3N)CC1)CO2`, the melting point lay in the range of 56 to 58 °C.

With `COC(=O)c1cc(N)c(N(C)C(C)=O)c(N)c1`, the melting point is 120 °C.

In turn, `Cc1c(S(=O)(=O)c2ccc(Cl)cc2)csc1-c1nc(-c2c(F)cccc2F)nn1C` showed a melting point of 183 to 185 °C.

Take `COc1nc(N)c(Cl)cc1C(=O)CCC1CCN(CC(C)C)CC1`: the melting point came out at 128 °C.

In turn, `N#Cc1ccc(C(=O)NC2CCCNC(=O)C2)cc1` (stereo not drawn) gave a melting point of 189 to 190 °C.

On to `Cn1c(-c2ccc(C=Cc3ccc(-c4ccccc4)cc3)cc2)cc2ccccc21`, for which the melting point is 254 °C.

Molecule `CN1CCN(c2cc(F)cc3c(=O)cc(C(=O)Nc4ccc(N5CCN(C(=O)O)CC5)cc4)oc23)CC1` yielded a melting point of 236 to 238 °C.

Molecule `O=C(NCCCOc1ccncc1)c1ccccc1CO` gave a melting point of 108 to 109 °C.

With `COc1ccc(-c2n[nH]c3c2c(=O)n(-c2ccccc2)c2ncccc32)cc1`, the melting point is more than 300 °C.

As to `CCSCC(=C1NCCCS1)[N+](=O)[O-]`, the melting point fell in the range of 69.5 to 71 °C.

Take `COc1ccc(C(=O)C2=C(c3ccc(OC)cc3)CCc3cc(OC)ccc32)cc1`: the melting point was in the range of 172 to 173 °C.

`CCC1(CC)c2cc(CBr)c(CBr)cc2C(CC)(CC)N1Cc1ccccc1`: the melting point lay within 164 to 166 °C.

Regarding `Cn1c(=O)c2[nH]c(/C=C/c3ccc4c(c3)OCO4)nc2n(C)c1=O`, the melting point was more than 275 °C.

As for `CCOC(=O)C(=O)CC(=O)c1cn(Cc2cccc(OC)c2)c2ccccc2c1=O`, the melting point fell in the range of 177 to 179 °C.

`CCCCCCCCOc1ccc(-c2ncc(O)cc2Cl)cc1`: the melting point was in the range of 128 to 130 °C.

Regarding `CC1(C)OC[C@H](CCOc2ccc(-c3nc4c5ccccc5c5ccccc5c4[nH]3)cc2)O1`, the melting point was 196 to 198 °C.

Turning to `Nc1ccc(S(=O)(=O)NCCCN2CCOCC2)cc1`, the melting point lay within 96 to 97 °C.

On to `Oc1cc(Br)c2oc(-c3ccc(O)c(F)c3F)nc2c1`, for which the melting point fell in the range of 258 to 260 °C.

Molecule `Cc1noc(NS(=O)(=O)c2ccc(Cl)cc2)c1Br` came in with a melting point of 145 to 150 °C.

As for `CCCc1c(OCCCCCCc2cc(OC)c(OC)c(C(C)C)c2)ccc(C(=O)O)c1O`, the melting point was in the range of 106 to 108 °C.

In turn, `O=C(O)CCCCCc1nn(-c2ccc(F)cc2)c2c1CCC2` showed a melting point of 64 to 67 °C.

In the case of `CCNC(=O)c1c([Si](C)(C)C)ccc(CF)c1Cl`, the melting point was in the range of 104 to 105 °C.

`COc1ccc2nccc(C(O)CCC3CCNCC3)c2c1` (stereo not drawn) yielded a melting point of 154 °C.

The molecule `COc1cc(N)c(Cl)cc1C(=O)NCC1CCN(CCCCCOCc2ccc(Cl)cc2)CC1` yielded a melting point of 131 to 132 °C.

On to `CN(SN1CCOCC1)C(=O)ON=C1SCC(=O)NC1(C)C`, for which the melting point is 180 to 182 °C.

`CC(C)CN1CCN(CCc2ccc(-c3cccc(N)n3)cc2)CC1` had a melting point of 85 to 88 °C.
